Reference: patent publication US20120283228A1, “2alpha-Methyl and 2beta-Methyl Analogs of 19,26-Dinor-1alpha,25-Dihydroxyvitamin D3 and Their Uses” (WISCONSIN ALUMNI RESEARCH FOUNDATION, priority 2011, published 2012)
“Also recorded” adds a separate entry of the source.

How the values were obtained:
[1] = tested on: Human promyelocytic leukemia (HL60) cells; assay: HL-60 differentiation (nitro blue tetrazolium reduction); format: cell-based; settings: for EC50: HL-60 cells, read-out: EC50, ability to promote HL-60 cell differentiation
Procedure: Serial dilutions were prepared so that a range of drug concentrations could be tested without changing the final concentration of ethanol (≦0.2%) present in the cell cultures.
Human promyelocytic leukemia (HL60) cells were grown in RPMI-1640 medium containing 10% fetal bovine serus. The cells were incubated at 37° C. in the presence of 5% CO2.
HL60 cells were plated at 1.2×10^5 cells/ml. Eighteen hours after plating, cells in duplicate were treated with drug. Four days later, the cells were harvested and a nitro blue tetrazolium reduction assay was performed (Collins et al., 1979; J. Ex. Med. 149:969-974). The percentage of differentiated cells was determined by counting a total of 200 cells and recording the number that contained intracellular black-blue formazan deposits Verification of differentiation to monocytic cells was determined by measuring phagocytic activity (data not shown).

[2] = tested on: 24-hydroxylase (24Ohase) gene promoter; assay: In vitro transcription assay in ROS 17/2.8 (bone) cells, luciferase reporter; format: cell-based; settings: for EC50: ROS 17/2.8 cells, 24-hydroxylase promoter-luciferase, read-out: EC50, transcriptional activity in bone cells; for logs less transcriptional activity than 1α,25-dihydroxyvitamin D3 in bone cells / times less transcriptional activity than 1α,25-dihydroxyvitamin D3 in bone cells: less than 1,25(OH)2D3
Procedure: Transcription activity was measured in ROS 17/2.8 (bone) cells that were stably transfected with a 24-hydroxylase (24Ohase) gene promoter upstream of a luciferase reporter gene (Arbour et al., 1998). Cells were given a range of doses. Sixteen hours after dosing the cells were harvested and luciferase activities were measured using a luminometer.
RLU=relative luciferase units.

vitamin D-deficient rats [3] = assay: Bone calcium mobilization (serum calcium); format: in vivo, Sprague-Dawley rats; settings: rats on low calcium diet (0.02%); for mobilization of bone calcium at 21,060 pmol/day: 21,060 pmol/day for 4 consecutive days; for activity in mobilizing calcium from bone / serum calcium levels: all dosages tested; for times less potent than 1,25(OH)2D3 in bone (bone calcium mobilization): 4 ip doses; for mobilization of bone calcium at 7,020 pmol/day: 7,020 pmol/day for 4 consecutive days; for mobilization of bone calcium at 35,100 pmol/day: 35,100 pmol/day for 4 consecutive days
Procedure: (§1) Male, weanling Sprague-Dawley rats were placed on Diet 11 (0.47% Ca) diet +AEK for one week followed by Diet 11 (0.02% Ca) +AEK for 3 weeks. The rats were then switched to a diet containing 0.47% Ca for one week followed by two, weeks on a diet containing 0.02% Ca. Dose administration began during the last week on 0.02% calcium diet. Four consecutive ip doses were given approximately 24 hours apart. Twenty-four hours after the last dose, blood was collected from the severed neck and the concentration of serum calcium determined as a measure of bone calcium mobilization. The first 10 cm of the intestine was also collected for intestinal calcium transport analysis using the everted gut sac method.

vitamin D-deficient rats [4] = assay: Intestinal calcium transport (everted gut sac method); format: in vivo, Sprague-Dawley rats; settings: for times less potent than 1,25(OH)2D3 in stimulating calcium transport in the gut / logs less potent than 1,25(OH)2D3 in the intestine: 4 ip doses
Procedure: as §1

[5] = target: T1, full-length recombinant rat vitamin D receptor (Rattus norvegicus, UniProt P13053); assay: biochemical; settings: ability to compete with [3H]-1,25(OH)2D3 for binding to the vitamin D receptor, full-length recombinant rat VDR
T1 sequence (P13053 1-423): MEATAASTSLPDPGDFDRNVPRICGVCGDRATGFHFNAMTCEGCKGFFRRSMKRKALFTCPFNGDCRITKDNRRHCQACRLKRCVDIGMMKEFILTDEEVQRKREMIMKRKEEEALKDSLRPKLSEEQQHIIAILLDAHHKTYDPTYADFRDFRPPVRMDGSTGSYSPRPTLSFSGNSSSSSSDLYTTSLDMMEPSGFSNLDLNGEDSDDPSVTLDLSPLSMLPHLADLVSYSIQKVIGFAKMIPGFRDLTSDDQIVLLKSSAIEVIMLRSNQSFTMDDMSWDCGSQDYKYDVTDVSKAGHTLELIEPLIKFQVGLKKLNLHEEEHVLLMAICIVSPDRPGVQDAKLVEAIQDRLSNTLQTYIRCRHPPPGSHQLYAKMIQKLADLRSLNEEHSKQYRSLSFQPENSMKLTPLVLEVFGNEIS
Procedure: (§2) Full-length recombinant rat receptor was expressed in E. coli BL21 (DE3) Codon Plus RIL cells and purified to homogeneity using two different column chromatography systems. The first system was a nickel affinity resin that utilizes the C-terminal histidine tag on this protein. The protein that was eluted from this resin was further purified using ion exchange chromatography (S-Sepharose Fast Flow). Aliquots of the purified protein were quick frozen in liquid nitrogen and stored at −80° C. until use. For use in binding assays, the protein was diluted in TEDK50 (50 mM Tris, 1.5 mM EDTA, pH 7.4, 5 mM DTT, 150 mM KCl) with 0.1% Chaps detergent. The receptor protein and ligand concentration was optimized such that no more than 20% of the added radiolabeled ligand as bound to the receptor.
(§3) Radiolabeled and unlabeled ligands were added to 100 mcl of the diluted protein at a final ethanol concentration of ≦10%; mixed and incubated overnight on ice to reach binding equilibrium. The following day, 100 mcl of hydroxylapaptite slurry (50%) was added to each tube and mixed at 10-minute intervals for 30 minutes. The hydroxylapaptite was collected by centrifugation and then washed three times with Tris-EDTA buffer (50 mM Tris, 1.5 mM EDTA, pH 7.4) containing 0.5% Titron X-100. After the final wash, the pellets were transferred to scintillation vials containing 4 ml of Biosafe II scintillation cocktail, mixed and placed in a scintillation counter. Total binding was determined from the tubes containing only radiolabeled ligand.

[6] = target: T1, full-length recombinant rat vitamin D receptor
Procedure: as §2, §3

[7] = rats on low calcium diet (0.02%)
[8] = compared with 1,25(OH)2D3 at 780 pmol/day

EC50 [1]	EC50 [2]	Ki [5]	Compound	logs less transcriptional activity than 1α,25-dihydroxyvitamin D3 in bone cells [2]	times less transcriptional activity than 1α,25-dihydroxyvitamin D3 in bone cells [2]	mobilization of bone calcium at 21,060 pmol/day (vitamin D-deficient rats [3])	activity in mobilizing calcium from bone / serum calcium levels (vitamin D-deficient rats [3])	times less potent than 1,25(OH)2D3 in bone (bone calcium mobilization) (vitamin D-deficient rats [3])	times less potent than 1,25(OH)2D3 in stimulating calcium transport in the gut (vitamin D-deficient rats [4]; [7])	times more potent than 1,25(OH)2D3 on HL-60 differentiation [1]	mobilization of bone calcium at 7,020 pmol/day (vitamin D-deficient rats [3])	intestinal calcium transport at 7,020 pmol/day (vitamin D-deficient rats [4]; [8])	logs less potent than 1,25(OH)2D3 in the intestine (vitamin D-deficient rats [4]; [7])	binding to the receptor as compared to 1,25(OH)2D3 [6]	mobilization of bone calcium at 35,100 pmol/day (vitamin D-deficient rats [3])	intestinal calcium transport at 35,100 pmol/day (vitamin D-deficient rats [4]; [8])	other results
6 nM	1 nM	0.4 nM	CC(O)CCCC(C)C1CCC2C(=CC=C3CC(O)C(C)C(O)C3)CCCC21C (single isomer, unassigned) [FD-1]	about 1 log	about 10 times	did not result in mobilization of bone calcium	little, if any, activity	more than 40 times	approximately 40 times								intestinal calcium transport at 21,060 pmol/day (vitamin D-deficient rats [4]; 21,060 pmol/day for 4 consecutive days, compared with 1,25(OH)2D3 at 780 pmol/day): some intestinal calcium transport, but hot to the same extent as 1,25(OH)2D3; intestinal calcium transport activity (vitamin D-deficient rats [4]; [7]): some, but very little, intestinal calcium transport activity
0.1 nM		0.08 nM	CC(O)CCCC(C)C1CCC2C(=CC=C3CC(O)C(C)C(O)C3)CCCC21C (single isomer, unassigned) [LR-2]			without any substantial effect	little, if any, activity	more than 30 times	about 10 times	10 times	did not result in mobilization of bone calcium	some intestinal calcium transport activity, but still not to the same extent as 1,25(OH)2D3	approximately one and one	bound equally well; also recorded: equivalent			times more transcriptional activity than 1α,25-dihydroxyvitamin D3 in bone cells ([2]; more than 1,25(OH)2D3): 10 times
5 nM	0.6 nM	0.2 nM	CC(O)CCCC(C)C1CCC2C(=CC=C3CC(O)C(C)C(O)C3)CCCC21C (single isomer, unassigned) [NC-2]	about one-half			little, if any, activity	more than 50 times		4 times	did not result, in mobilization of bone calcium	some intestinal calcium transport activity, but still not to the same extent as 1,25(OH)2D3	approximately 5 log	bound equally well; also recorded: equivalent	without any substantial effect	some intestinal calcium transport activity, but still not to the same extent as 1,25(OH)2D3	HL-60 differentiation potency as compared to 1,25(OH)2D3 [1]: little difference; transcriptional activity in bone cells as compared to 1α,25-dihydroxyvitamin D3 [2]: slightly less transcriptional activity
70 nM		5 nM	CC(O)CCCC(C)C1CCC2C(=CC=C3CC(O)C(C)C(O)C3)CCCC21C (single isomer, unassigned) [TH-1]	about 2 log	~20 times		little, if any, activity	more than 50 times							did not result in mobilization of bone calcium	some intestinal calcium transport activity, but still not to the same extent as 1,25(OH)D3	logs less potent than 1,25(OH)2D3 on HL-60 differentiation ([1]; less potent than 1,25(OH)2D3): 3 log
